Assay results taken from PMC6946680, “Modulation of brain cation-Cl^− cotransport via the SPAK kinase inhibitor ZT-1a” (Nature Communications, 2020).
Several values for one entry are separate records, joined by “and”; a condition that tells them apart may be missing. Equal entries are not always repeated. Where two headings read alike, the source gives them in different places.

Columns and labels:
[1] = test system: KCC3 pThr1048; test: Immunoblot of KCC site 2 phosphorylation (KCC3 Thr1048) in HEK-293 cells transfected with FLAG-KCC3; assay type: cell-based, human
[2] = test system: KCC3 pThr991; test: Immunoblot of KCC site 1 phosphorylation (KCC3 Thr991) in HEK-293 cells transfected with FLAG-KCC3; assay type: cell-based, human; conditions: for IC50: read-out: KCC3 pThr991 (μM), 50% inhibition, HEK-293, n = 3
[3] = test system: SPAK pSer373; test: Immunoblot of SPAK/OSR1 p-Ser373/Ser325 in HEK-293 cells; assay type: cell-based, human
Description: (§1) Band intensities were quantitated with ImageJ software. ***p < 0.001; **p < 0.01; *p < 0.05; ns, nonsignificant [by one-way ANOVA with post hoc testing (n = 6, error bars represent the mean ± SEM)].
(§2) Thirty-six hours post transfection, cells were stimulated with either control isotonic or hypotonic medium for a period of 30 min. […] Protein concentrations were determined using the Bradford method. Cells were treated with the indicated concentrations of the SPAK/OSR1 inhibitors.

[4] = test system: NKCC1 pThr203/207/212; test: Immunoblot of NKCC1 p-Thr203/Thr207/Thr212 in HEK-293 cells; assay type: cell-based, human
Description: as §1, §2

[5] = test system: mouse model of ischemic stroke (tMCAO); test: Infarct volume and hemispheric swelling (TTC) 24 h after tMCAO; assay type: in vivo; conditions: Fig 7b, individual mice
[6] = test system: SPAK pSer373; test: Immunoblot of SPAK/OSR1 p-Ser373/Ser325 in HEK-293 cells; assay type: cell-based, human; conditions: read-out: SPAK pSer373 (μM), 50% inhibition, HEK-293, n = 3
[7] = test system: KCC3 pThr1048; test: Immunoblot of KCC site 2 phosphorylation (KCC3 Thr1048) in HEK-293 cells transfected with FLAG-KCC3; assay type: cell-based, human; conditions: read-out: KCC3 pThr1048 (μM), 50% inhibition, HEK-293, n = 3
[8] = test system: NKCC1 pThr203/207/212; test: Immunoblot of NKCC1 p-Thr203/Thr207/Thr212 in HEK-293 cells; assay type: cell-based, human; conditions: read-out: NKCC1 pThr203 (μM), 50% inhibition, HEK-293, n = 3
[9] = Hypotonic low Cl, compound concentration 1 (unit not given)
[10] = Hypotonic low Cl, compound concentration 3 (unit not given)
[11] = Hypotonic low Cl, compound concentration 10 (unit not given)
[12] = Isotonic control, compound concentration 1 (unit not given)
[13] = Isotonic control, compound concentration 3 (unit not given)
[14] = Isotonic control, compound concentration 10 (unit not given)

| Compound | Site-2 phospho / KCC [1, 9] | Site-2 phospho / KCC [1, 10] | Site-2 phospho / KCC [1, 11] | Site-2 phospho / KCC [1, 12] | Site-2 phospho / KCC [1, 13] | Site-2 phospho / KCC [1, 14] | Site-1 phospho / KCC [2, 9] | Site-1 phospho / KCC [2, 10] | Site-1 phospho / KCC [2, 11] | Site-1 phospho / KCC [2, 12] | Site-1 phospho / KCC [2, 13] | Site-1 phospho / KCC [2, 14] | pSer373 / SPAK [3, 9] | pSer373 / SPAK [3, 10] | pSer373 / SPAK [3, 11] | pSer373 / SPAK [3, 12] | pSer373 / SPAK [3, 13] | pSer373 / SPAK [3, 14] | pThrNKCC1 / NKCC1 [4, 9] | pThrNKCC1 / NKCC1 [4, 10] | also measured |
| --- | --- | --- | --- | --- | --- | --- | --- | --- | --- | --- | --- | --- | --- | --- | --- | --- | --- | --- | --- | --- | --- |
| Cc1cc(C(C#N)c2ccc(Cl)cc2)c(Cl)cc1NC(=O)c1ccccc1N (centres unmarked) [ZT-1d] | 0.37 and 0.41 and 0.35 and 0.482 | 0.29 and 0.25 and 0.23 and 0.287 | 0.105 and 0.124 and 0.08 and 0.117 | 0.412 and 0.477 and 0.43 and 0.521 | 0.209 and 0.165 and 0.191 and 0.177 | 0.108 and 0.08 and 0.114 and 0.094 | 0.516 and 0.487 and 0.55 and 0.508 | 0.509 and 0.49 and 0.511 and 0.521 | 0.276 and 0.218 and 0.234 and 0.258 | 0.49 and 0.471 and 0.48 and 0.466 | 0.355 and 0.36 and 0.38 and 0.371 | 0.218 and 0.232 and 0.255 and 0.241 | 0.19 and 0.21 and 0.18 and 0.207 | 0.131 and 0.12 and 0.103 and 0.116 | 0.04 and 0.025 and 0.035 and 0.031 | 0.11 and 0.119 and 0.109 and 0.101 | 0.072 and 0.065 and 0.051 and 0.063 | 0.022 and 0.031 and 0.038 and 0.028 | 0.46 and 0.429 and 0.413 and 0.49 | 0.27 and 0.21 and 0.203 and 0.251 | pThrNKCC1 / NKCC1 [4, 11]: 0.11 and 0.077 and 0.102 and 0.085; pThrNKCC1 / NKCC1 [4, 12]: 0.313 and 0.307 and 0.286 and 0.297; pThrNKCC1 / NKCC1 [4, 13]: 0.143 and 0.119 and 0.09 and 0.126; pThrNKCC1 / NKCC1 [4, 14]: 0.055 and 0.031 and 0.042 and 0.047 |
| Cc1cc(C(C#N)c2ccc(Cl)cc2)c(Cl)cc1NC(=O)c1cc(Cl)cc(Cl)c1O (centres unmarked) [ZT-1f] | 0.535 and 0.483 and 0.512 and 0.467 | 0.341 and 0.264 and 0.311 and 0.293 | 0.109 and 0.131 and 0.09 and 0.115 | 0.486 and 0.369 and 0.411 and 0.451 | 0.191 and 0.175 and 0.185 and 0.163 | 0.073 and 0.097 and 0.081 and 0.092 | 0.591 and 0.61 and 0.578 and 0.662 | 0.501 and 0.522 and 0.538 and 0.551 | 0.304 and 0.287 and 0.249 and 0.4315 | 0.52 and 0.572 and 0.465 and 0.481 | 0.476 and 0.441 and 0.483 and 0.501 | 0.412 and 0.386 and 0.366 and 0.392 | 0.49 and 0.51 and 0.58 and 0.552 | 0.255 and 0.215 and 0.1963 and 0.207 | 0.059 and 0.041 and 0.05 and 0.046 | 0.221 and 0.274 and 0.241 and 0.291 | 0.101 and 0.09 and 0.083 and 0.121 | 0.031 and 0.026 and 0.028 | 0.511 and 0.43 and 0.48 and 0.55 | 0.144 and 0.139 and 0.1273 and 0.131 | pThrNKCC1 / NKCC1 [4, 11]: 0.029 and 0.031 and 0.039 and 0.026; pThrNKCC1 / NKCC1 [4, 12]: 0.187 and 0.123 and 0.15 and 0.173; pThrNKCC1 / NKCC1 [4, 14]: 0.009 and 0.011 and 0.016 and 0.012 |
| Cc1cc(C(C#N)c2ccc(Cl)cc2)c(Cl)cc1NC(=O)c1ccccc1S (centres unmarked) [ZT-1c] | 0.497 and 0.455 and 0.548 and 0.508 | 0.209 and 0.276 and 0.192 and 0.234 | 0.048 and 0.058 and 0.04 and 0.032 | 0.476 and 0.401 and 0.516 and 0.551 | 0.214 and 0.265 and 0.187 and 0.198 | 0.065 and 0.051 and 0.044 and 0.058 | 1.35 and 1.471 and 1.65 and 1.51 | 1.55 and 1.21 and 1.48 and 1.3 | 1.012 and 0.998 and 0.867 and 0.921 | 1.231 and 1.321 and 1.543 and 1.43 | 1.091 and 0.991 and 0.86 and 0.91 | 0.761 and 0.69 and 0.81 and 0.61 | 0.203 and 0.196 and 0.2213 and 0.215 | 0.112 and 0.125 and 0.103 and 0.117 | 0.032 and 0.051 and 0.046 and 0.039 | 0.122 and 0.112 and 0.129 and 0.116 | 0.075 and 0.062 and 0.048 and 0.057 | 0.036 and 0.024 and 0.031 and 0.029 | 1.123 and 1.265 and 1.316 and 1.19 | 0.587 and 0.521 and 0.402 and 0.467 | pThrNKCC1 / NKCC1 [4, 11]: 0.215 and 0.209 and 0.187 and 0.193; pThrNKCC1 / NKCC1 [4, 12]: 0.43 and 0.561 and 0.501 and 0.592; pThrNKCC1 / NKCC1 [4, 14]: 0.05 and 0.036 and 0.066 and 0.049 |
| Cc1cc(C(C#N)c2ccc(Cl)cc2)c(Cl)cc1NC(=O)c1cc(Cl)ccc1O (centres unmarked) [ZT] | – | – | – | – | – | – | – | – | – | – | – | – | – | – | – | – | – | – | – | – | Hemisphere swelling (%) ([5]; group ZT 2.5): 11.06% and 15.88% and 13.11% and 15.27% and 16.5% and 21.75%; Infarct volume (mm3) ([5]; group ZT 2.5): 29.36 mm3 and 90.65 mm3 and 33.9 mm3 and 61.9 mm3 and 46.64 mm3 and 99.8 mm3; Hemisphere swelling (%) ([5]; group ZT 5.0): 16.2% and 16.76% and 19.99% and 9.25% and 8.47% and 7.57% and 9.24% and 4.63% and 10.39% and 8.48% and 13.8% and 7.91%; Infarct volume (mm3) ([5]; group ZT 5.0): 48.74 mm3 and 86.87 mm3 and 49.93 mm3 and 31.43 mm3 and 42.1 mm3 and 27.75 mm3 and 25.29 mm3 and 24.11 mm3 and 27.25 mm3 and 37.2 mm3 and 90 mm3 and 33.39 mm3 |
| Cc1cc(C(C#N)c2ccc(Cl)cc2)c(Cl)cc1NC(=O)c1ccccc1[N+](=O)[O-] (centres unmarked) [Compound 1e] | – | – | – | – | – | – | – | – | – | – | – | – | – | – | – | – | – | – | – | – | IC50 ([2]; Iso (isotonic)): > 10 µM; IC50 ([2]; hypo (hypotonic)): > 10 µM; IC50 ([6]; Iso (isotonic)): > 10 µM; IC50 ([6]; hypo (hypotonic)): > 10 µM; IC50 ([7]; Iso (isotonic)): > 10 µM; IC50 ([7]; hypo (hypotonic)): > 10 µM; IC50 ([8]; Iso (isotonic)): > 10 µM; IC50 ([8]; hypo (hypotonic)): > 10 µM |
| COc1ccc(Cl)cc1C(=O)Nc1cc(Cl)c(C(C#N)c2ccc(Cl)cc2)cc1C (centres unmarked) [Compound 1j] | – | – | – | – | – | – | – | – | – | – | – | – | – | – | – | – | – | – | – | – | IC50 ([2]; Iso (isotonic)): > 10 µM; IC50 ([2]; hypo (hypotonic)): > 10 µM; IC50 ([6]; Iso (isotonic)): > 10 µM; IC50 ([6]; hypo (hypotonic)): > 10 µM; IC50 ([7]; Iso (isotonic)): > 10 µM; IC50 ([7]; hypo (hypotonic)): > 10 µM; IC50 ([8]; Iso (isotonic)): > 10 µM; IC50 ([8]; hypo (hypotonic)): > 10 µM |
| Cc1cc(C(C#N)c2ccc(Cl)cc2)c(Cl)cc1NC(=O)c1cccc(O)c1O (centres unmarked) [Compound 1i] | – | – | – | – | – | – | – | – | – | – | – | – | – | – | – | – | – | – | – | – | IC50 ([2]; Iso (isotonic)): > 10 µM; IC50 ([2]; hypo (hypotonic)): > 10 µM; IC50 ([6]; Iso (isotonic)): > 10 µM; IC50 ([6]; hypo (hypotonic)): > 10 µM; IC50 ([7]; Iso (isotonic)): > 10 µM; IC50 ([7]; hypo (hypotonic)): > 10 µM; IC50 ([8]; Iso (isotonic)): > 10 µM; IC50 ([8]; hypo (hypotonic)): > 10 µM |
